Results taken from US12077503B2, “Substituted cyclic amides and their use as herbicides” (FMC CORPORATION, priority 2015, dated 2024).

Tests used:
Assay type in all cases: in vivo
[1] = test system: barnyardgrass (Echinochloa crus-galli); assay: Test G Pre-Emergence Protocol; details: Echinochloa crus-galli, pre-emergence, 312 h, evaluated after 13 days
In short: (§1)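 Pots of seeds in standard soil were grown for one day in a glasshouse (24/16 °C day/night, 14 h light, 65% humidity), then sprayed with compound in acetone/water 50:50 with 0.5% Tween 20 at 15.625, 62.5 or 250 g/ha. Damage was scored after 13 days on a 0 (none) to 100 (total) scale.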

corn (Zea mays) [2] = assay: Test G Pre-Emergence Protocol; details: Zea mays, pre-emergence, 312 h, evaluated after 13 days
In short: as §1

[3] = test system: giant foxtail (Setaria faberi); assay: Test G Pre-Emergence Protocol; details: Setaria faberi, pre-emergence, 312 h, evaluated after 13 days
In short: as §1

[4] = test system: ivy-leaved morning glory (Ipomoea hederacea); assay: Test G Pre-Emergence Protocol; details: Ipomoea, pre-emergence, 312 h, evaluated after 13 days
In short: as §1

[5] = test system: redroot pigweed (Amaranthus retroflexus); assay: Test G Pre-Emergence Protocol; details: Amaranthus retroflexus, pre-emergence, 312 h, evaluated after 13 days
In short: as §1

[6] = test system: velvetleaf (Abutilon theophrasti); assay: Test G Pre-Emergence Protocol; details: Abutilon theophrasti, pre-emergence, 312 h, evaluated after 13 days
In short: as §1

[7] = test system: barnyardgrass (Echinochloa crus-galli); assay: Test G Post-Emergence Protocol; details: Echinochloa crus-galli, post-emergence, 312 h
In short: (§2)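 Eight days post-sowing, plants received a spray of test compound (acetone/water 50:50, 0.5% Tween 20) at 15.625, 62.5 or 250 g/ha. Glasshouse regime thereafter: 24/16 °C, 14 h light, 65% humidity. Assessment after 13 days on a 0–100 damage scale.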

corn (Zea mays) [8] = assay: Test G Post-Emergence Protocol; details: Zea mays, post-emergence, 312 h
In short: as §2

[9] = test system: giant foxtail (Setaria faberi); assay: Test G Post-Emergence Protocol; details: Setaria faberi, post-emergence, 312 h
In short: as §2

[10] = test system: ivy-leaved morning glory (Ipomoea hederacea); assay: Test G Post-Emergence Protocol; details: Ipomoea, post-emergence, 312 h
In short: as §2

[11] = test system: redroot pigweed (Amaranthus retroflexus); assay: Test G Post-Emergence Protocol; details: Amaranthus retroflexus, post-emergence, 312 h
In short: as §2

[12] = test system: velvetleaf (Abutilon theophrasti); assay: Test G Post-Emergence Protocol; details: Abutilon theophrasti, post-emergence, 312 h
In short: as §2

Cc1cc(NC(=O)[C@@H]2C(=O)N(C)C[C@H]2c2ccc(C(F)(F)F)cc2)[nH]n1 (racemic) [Compound 1626]
0%: pest or weed control at 15.625 g/ha ([1]; 15.625 g ai/ha, read-out: Barnyard grass damage rating (100=total damage to plant; 0=no damage to plant)) | pest or weed control at 62.5 g/ha ([1]; 62.5 g ai/ha, 100=total damage to plant, 0=no damage to plant, read-out: plant damage rating, Barnyardgrass) | pest or weed control at 250 g/ha ([1]; 250 g ai/ha, read-out: Barnyardgrass damage rating (100=total damage to plant; 0=no damage to plant)) | plant injury at 15.625 g/ha (corn (Zea mays) [2]; 15.625 g ai/ha, read-out: Corn damage rating (100=total damage to plant; 0=no damage to plant)) | plant injury at 62.5 g/ha (corn (Zea mays) [2]; 62.5 g ai/ha, 100=total damage to plant, 0=no damage to plant, read-out: plant damage rating, Corn) | plant injury at 250 g/ha (corn (Zea mays) [2]; 250 g ai/ha, read-out: Corn damage rating (100=total damage to plant; 0=no damage to plant)) | pest or weed control at 15.625 g/ha ([3]; 15.625 g ai/ha, read-out: Foxtail, Giant damage rating (100=total damage to plant; 0=no damage to plant)) | pest or weed control at 62.5 g/ha ([3]; 62.5 g ai/ha, 100=total damage to plant, 0=no damage to plant, read-out: plant damage rating, Foxtail, Giant) | pest or weed control at 250 g/ha ([3]; 250 g ai/ha, read-out: Foxtail, Giant damage rating (100=total damage to plant; 0=no damage to plant)) | pest or weed control at 15.625 g/ha ([4]; 15.625 g ai/ha, read-out: Morning-glory, Ivy-leaved damage rating (100=total damage to plant; 0=no damage to plant)) | pest or weed control at 62.5 g/ha ([4]; 62.5 g ai/ha, 100=total damage to plant, 0=no damage to plant, read-out: plant damage rating, Morningglory, Ivy-leaved) | pest or weed control at 250 g/ha ([4]; 250 g ai/ha, read-out: Morningglory, Ivy-leaved damage rating (100=total damage to plant; 0=no damage to plant)) | pest or weed control at 15.625 g/ha ([5]; 15.625 g ai/ha, read-out: Pigweed, Redroot damage rating (100=total damage to plant; 0=no damage to plant)) | pest or weed control at 62.5 g/ha ([5]; 62.5 g ai/ha, 100=total damage to plant, 0=no damage to plant, read-out: plant damage rating, Pigweed, Redroot) | pest or weed control at 250 g/ha ([5]; 250 g ai/ha, read-out: Pigweed, Redroot damage rating (100=total damage to plant; 0=no damage to plant)) | pest or weed control at 15.625 g/ha ([6]; 15.625 g ai/ha, read-out: Velvetleaf damage rating (100=total damage to plant; 0=no damage to plant)) | pest or weed control at 62.5 g/ha ([6]; 62.5 g ai/ha, 100=total damage to plant, 0=no damage to plant, read-out: plant damage rating, Velvetleaf) | pest or weed control at 250 g/ha ([6]; 250 g ai/ha, read-out: Velvetleaf damage rating (100=total damage to plant; 0=no damage to plant)) | pest or weed control at 15.625 g/ha ([7]; 15.625 g ai/ha, evaluated after 13 days (100=total damage to plant; 0=no damage to plant), read-out: Barnyardgrass damage rating) | pest or weed control at 62.5 g/ha ([7]; 62.5 g ai/ha, evaluated after 13 days, read-out: Barnyardgrass damage rating (100=total damage to plant; 0=no damage to plant)) | pest or weed control at 250 g/ha ([7]; 250 g ai/ha, evaluated after 13 days, read-out: damage to plant, Barnyardgrass (100=total damage to plant; 0=no damage to plant)) | plant injury at 15.625 g/ha (corn (Zea mays) [8]; 15.625 g ai/ha, evaluated after 13 days (100=total damage to plant; 0=no damage to plant), read-out: Corn damage rating) | plant injury at 62.5 g/ha (corn (Zea mays) [8]; 62.5 g ai/ha, evaluated after 13 days, read-out: Corn damage rating (100=total damage to plant; 0=no damage to plant)) | plant injury at 250 g/ha (corn (Zea mays) [8]; 250 g ai/ha, evaluated after 13 days, read-out: damage to plant, Corn (100=total damage to plant; 0=no damage to plant)) | pest or weed control at 15.625 g/ha ([9]; 15.625 g ai/ha, evaluated after 13 days (100=total damage to plant; 0=no damage to plant), read-out: Foxtail, Giant damage rating) | pest or weed control at 62.5 g/ha ([9]; 62.5 g ai/ha, evaluated after 13 days, read-out: Foxtail, Giant damage rating (100=total damage to plant; 0=no damage to plant)) | pest or weed control at 250 g/ha ([9]; 250 g ai/ha, evaluated after 13 days, read-out: damage to plant, Foxtail, Giant (100=total damage to plant; 0=no damage to plant)) | pest or weed control at 15.625 g/ha ([10]; 15.625 g ai/ha, evaluated after 13 days (100=total damage to plant; 0=no damage to plant), read-out: Morningglory, Ivy-leaved damage rating) | pest or weed control at 62.5 g/ha ([10]; 62.5 g ai/ha, evaluated after 13 days, read-out: Morningglory, Ivy-leaved damage rating (100=total damage to plant; 0=no damage to plant)) | pest or weed control at 250 g/ha ([10]; 250 g ai/ha, evaluated after 13 days, read-out: damage to plant, Morningglory, Ivy-leaved (100=total damage to plant; 0=no damage to plant)) | pest or weed control at 15.625 g/ha ([11]; 15.625 g ai/ha, evaluated after 13 days (100=total damage to plant; 0=no damage to plant), read-out: Pigweed, Redroot damage rating) | pest or weed control at 62.5 g/ha ([11]; 62.5 g ai/ha, evaluated after 13 days, read-out: Pigweed, Redroot damage rating (100=total damage to plant; 0=no damage to plant)) | pest or weed control at 250 g/ha ([11]; 250 g ai/ha, evaluated after 13 days, read-out: damage to plant, Pigweed, Redroot (100=total damage to plant; 0=no damage to plant)) | pest or weed control at 15.625 g/ha ([12]; 15.625 g ai/ha, evaluated after 13 days (100=total damage to plant; 0=no damage to plant), read-out: Velvetleaf damage rating) | pest or weed control at 62.5 g/ha ([12]; 62.5 g ai/ha, evaluated after 13 days, read-out: Velvetleaf damage rating (100=total damage to plant; 0=no damage to plant)) | pest or weed control at 250 g/ha ([12]; 250 g ai/ha, evaluated after 13 days, read-out: damage to plant, Velvetleaf (100=total damage to plant; 0=no damage to plant))
